# Organism: Homo sapiens
# Assay: Inhibitory activity against adenosine diphosphate (ADP)-induced platelet aggregation
# Format: functional, organism-based
row,SMILES,IC50 [nM]
1,N=C(N)c1ccc(OCCOc2ccc(C[C@H](NC(=O)c3ccco3)C(=O)O)cc2)cc1,710
2,N=C(N)c1ccc(OCCCOc2ccc(C[C@H](NC(=O)c3ccccc3)C(=O)O)cc2)cc1,> 1000
3,N=C(N)c1ccc(NC(=O)COc2ccc(C[C@H](NC(=O)c3ccccc3)C(=O)O)cc2)cc1,270
4,Cc1ccccc1OCC(=O)N[C@@H](Cc1ccc(OCC(=O)Nc2ccc(C(=N)N)cc2)cc1)C(=O)O,610

# Further lines, results first:
row,IC50 [nM],SMILES
1,250,Cc1ccc(C(=O)N[C@@H](Cc2ccc(OCC(=O)Nc3ccc(C(=N)N)cc3)cc2)C(=O)O)cc1
2,740,N=C(N)c1ccc(OCCOc2ccc(C[C@H](NC(=O)c3ccccc3)C(=O)O)cc2)cc1
3,> 1000,N=C(N)c1ccc(OCCCCOc2ccc(C[C@H](NC(=O)c3ccccc3)C(=O)O)cc2)cc1
4,510,N=C(N)c1ccc(NC(=O)COc2ccc(C[C@H](NC(=O)c3ccc4ccccc4c3)C(=O)O)cc2)cc1

# Source: ChEMBL document CHEMBL1131785, “Design and synthesis of amidino-tyrosine derivatives as non-peptide fibrinogen receptor antagonists” (Bioorg Med Chem Lett, 1999)
